In PubChem BioAssay AID2060504 (Molecular Pharmacology Branch, DTP, NCI, 2025):

Tested on: 636577-100-R-J1-PDC complex spheroid viability
Test: Anticancer human tumor 636577-100-R-J1-PDC patient-derived endometrial adenocarcinoma cell line growth inhibition [GQUAD]
Conditions: for IC50: curve of first compound; for viability, T/C: stronger effect = lower value
How it was run: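 Multi-cell-type spheroids of tumor cells with HUVEC and mesenchymal stem cells, treated with drug combinations. Concentrations descend in half-log steps from near clinical Cmax, or from 10 microM where Cmax is unknown; viability read-out.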

[1] = second compound 0.0316 µM, first compound 0.0316 µM
[2] = second compound 0.0316 µM, first compound 0.1 µM
[3] = second compound 0.0316 µM, first compound 0.316 µM
[4] = second compound 0.0316 µM, first compound 1 µM
[5] = second compound 0.0316 µM, first compound 3.16 µM
[6] = second compound 0.0316 µM, first compound 10 µM
[7] = second compound 0.1 µM, first compound 0.0316 µM
[8] = second compound 0.1 µM, first compound 0.1 µM
[9] = second compound 0.1 µM, first compound 0.316 µM
[10] = second compound 0.1 µM, first compound 1 µM
[11] = second compound 0.1 µM, first compound 3.16 µM
[12] = second compound 0.1 µM, first compound 10 µM
[13] = second compound 0.316 µM, first compound 0.0316 µM
[14] = second compound 0.316 µM, first compound 0.1 µM
[15] = second compound 0.316 µM, first compound 0.316 µM
[16] = second compound 0.316 µM, first compound 1 µM
[17] = second compound 0.316 µM, first compound 3.16 µM
[18] = second compound 0.316 µM, first compound 10 µM
[19] = second compound 1 µM, first compound 0.0316 µM
[20] = second compound 1 µM, first compound 0.1 µM
[21] = second compound 1 µM, first compound 0.316 µM
[22] = second compound 1 µM, first compound 1 µM
[23] = second compound 1 µM, first compound 3.16 µM
[24] = second compound 1 µM, first compound 10 µM
[25] = second compound 3.16 µM, first compound 0.0316 µM
[26] = second compound 3.16 µM, first compound 0.1 µM
[27] = second compound 3.16 µM, first compound 0.316 µM
[28] = second compound 3.16 µM, first compound 1 µM
[29] = second compound 3.16 µM, first compound 3.16 µM
[30] = second compound 3.16 µM, first compound 10 µM
[31] = second compound 10 µM, first compound 0.0316 µM
[32] = second compound 10 µM, first compound 0.1 µM
[33] = second compound 10 µM, first compound 0.316 µM
[34] = second compound 10 µM, first compound 1 µM
[35] = second compound 10 µM, first compound 3.16 µM
[36] = second compound 10 µM, first compound 10 µM
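Note: viability read after seven days of drug exposure.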
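Throughout, for viability, T/C: luminescence signal used as a proxy for viable cells; 100% = DMSO vehicle control wells.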

Question: What does the source list for C=CC(=O)N1CCN(c2nc(=O)n(-c3c(C)ccnc3C(C)C)c3nc(-c4c(O)cccc4F)c(F)cc23)C(C)C1 (stereo not drawn) + Cc1cnc(CNC(=O)c2c(=O)c3ccc(N4CCCN(C)CC4)nc3n3c2sc2ccccc23)cn1?
Answer: IC50 (second compound 0.0316 µM): < 31.6 nM; IC50 (second compound 0.1 µM): < 31.6 nM; IC50 (second compound 0.316 µM): < 31.6 nM; IC50 (second compound 1 µM): < 31.6 nM; IC50 (second compound 3.16 µM): < 31.6 nM; IC50 (second compound 10 µM): < 31.6 nM; viability, T/C [1]: 41.6%; viability, T/C [2]: 45.5%; viability, T/C [3]: 43.1%; viability, T/C [4]: 45.7%; viability, T/C [5]: 51%; viability, T/C [6]: 43%; viability, T/C [7]: 28.8%; viability, T/C [8]: 30.6%; viability, T/C [9]: 31.7%; viability, T/C [10]: 33.1%; viability, T/C [11]: 35.1%; viability, T/C [12]: 28.1%; viability, T/C [13]: 24.7%; viability, T/C [14]: 25.1%; viability, T/C [15]: 25.2%; viability, T/C [16]: 29.9%; viability, T/C [17]: 31.1%; viability, T/C [18]: 28%; viability, T/C [19]: 24.6%; viability, T/C [20]: 22.8%; viability, T/C [21]: 24.1%; viability, T/C [22]: 25.4%; viability, T/C [23]: 21.7%; viability, T/C [24]: 25.7%; viability, T/C [25]: 24%; viability, T/C [26]: 21.5%; viability, T/C [27]: 25.9%; viability, T/C [28]: 27.9%; viability, T/C [29]: 29.5%; viability, T/C [30]: 26.8%; viability, T/C [31]: 21.5%; viability, T/C [32]: 22.9%; viability, T/C [33]: 23.9%; viability, T/C [34]: 22.1%; viability, T/C [35]: 26.7%; viability, T/C [36]: 25.2%

Question: Which results are given for CCCS(=O)(=O)Nc1ccc(F)c(C(=O)c2c[nH]c3ncc(-c4ccc(Cl)cc4)cc23)c1F + Cc1[nH]c2ccc(F)cc2c1-c1nc2c3cccnc3c3ncccc3c2[nH]1?
Answer: IC50 (second compound 0.0316 µM): > 10000 nM; IC50 (second compound 0.1 µM): 5370 nM; IC50 (second compound 0.316 µM): 7080 nM; IC50 (second compound 1 µM): 7150 nM; IC50 (second compound 3.16 µM): < 31.6 nM; IC50 (second compound 10 µM): < 31.6 nM; viability, T/C [1]: 98.2%; viability, T/C [2]: 87.4%; viability, T/C [3]: 116%; viability, T/C [4]: 56.9%; viability, T/C [5]: 73.5%; viability, T/C [6]: 43.6%; viability, T/C [7]: 101%; viability, T/C [8]: 69.4%; viability, T/C [9]: 104%; viability, T/C [10]: 58.7%; viability, T/C [11]: 66.3%; viability, T/C [12]: 37.3%; viability, T/C [13]: 94.2%; viability, T/C [14]: 79.6%; viability, T/C [15]: 81.2%; viability, T/C [16]: 89.6%; viability, T/C [17]: 80.4%; viability, T/C [18]: 36.7%; viability, T/C [19]: 87.4%; viability, T/C [20]: 83.1%; viability, T/C [21]: 63.9%; viability, T/C [22]: 82.9%; viability, T/C [23]: 69.4%; viability, T/C [24]: 41.6%; viability, T/C [25]: 28%; viability, T/C [26]: 25.4%; viability, T/C [27]: 31.2%; viability, T/C [28]: 32.5%; viability, T/C [29]: 31.9%; viability, T/C [30]: 20.4%; viability, T/C [31]: 40.2%; viability, T/C [32]: 49.2%; viability, T/C [33]: 48.7%; viability, T/C [34]: 45.1%; viability, T/C [35]: 43.5%; viability, T/C [36]: 28.3%

Question: What does the source list for CC1COCCN1c1cc(C2(O)CC3CCC(C2)O3)c2cnn(-c3ccn[nH]3)c2n1 (stereo not drawn) + CN(C)c1ccc(Nc2c3ccc(NC(=O)CCN4CCCC4)cc3nc3cc(NC(=O)CCN4CCCC4)ccc23)cc1?
Answer: IC50 (second compound 0.0316 µM): 46.2 nM; IC50 (second compound 0.1 µM): 33.6 nM; IC50 (second compound 0.316 µM): < 31.6 nM; IC50 (second compound 1 µM): < 31.6 nM; IC50 (second compound 3.16 µM): < 31.6 nM; IC50 (second compound 10 µM): < 31.6 nM; viability, T/C [1]: 59.8%; viability, T/C [2]: 30.1%; viability, T/C [3]: 14.8%; viability, T/C [4]: 7.23%; viability, T/C [5]: 3%; viability, T/C [6]: 0.68%; viability, T/C [7]: 51.9%; viability, T/C [8]: 25.7%; viability, T/C [9]: 15.9%; viability, T/C [10]: 6.63%; viability, T/C [11]: 2.93%; viability, T/C [12]: 0.63%; viability, T/C [13]: 49.4%; viability, T/C [14]: 27.2%; viability, T/C [15]: 14.4%; viability, T/C [16]: 7.39%; viability, T/C [17]: 2.94%; viability, T/C [18]: 0.62%; viability, T/C [19]: 44.5%; viability, T/C [20]: 24.9%; viability, T/C [21]: 13.1%; viability, T/C [22]: 7.03%; viability, T/C [23]: 2.84%; viability, T/C [24]: 0.8%; viability, T/C [25]: 23.6%; viability, T/C [26]: 18.4%; viability, T/C [27]: 12.6%; viability, T/C [28]: 6.87%; viability, T/C [29]: 2.75%; viability, T/C [30]: 0.79%; viability, T/C [31]: 5.13%; viability, T/C [32]: 4.81%; viability, T/C [33]: 2.43%; viability, T/C [34]: 2.03%; viability, T/C [35]: 1.14%; viability, T/C [36]: 0.3%

Question: For Cc1cccc(N(C)C(=O)C2C(O)CCN2c2nc(C)cc(C(F)(F)F)c2C#N)c1 (stereo not drawn) + Cc1[nH]c2ccc(F)cc2c1-c1nc2c3cccnc3c3ncccc3c2[nH]1, which IC50 (second compound 0.0316 µM) is on record?
Answer: 3160 nM

Question: What about the IC50 (second compound 0.1 µM) of the same compound?
Answer: > 10000 nM

Question: And the IC50 (second compound 0.316 µM)?
Answer: > 10000 nM

Question: What about the IC50 (second compound 1 µM) of the same compound?
Answer: > 10000 nM

Question: What about the IC50 (second compound 3.16 µM) of the same compound?
Answer: < 31.6 nM

Question: What about the IC50 (second compound 10 µM) of the same compound?
Answer: > 10000 nM

Question: And the viability, T/C [1]?
Answer: 89%

Question: And the viability, T/C [2]?
Answer: 77.5%

Question: And the viability, T/C [3]?
Answer: 89.5%

Question: And the viability, T/C [4]?
Answer: 39.3%

Question: What about the viability, T/C [5] of the same compound?
Answer: 61.9%

Question: What about the viability, T/C [6] of the same compound?
Answer: 61%

Question: And the viability, T/C [7]?
Answer: 76.3%

Question: And the viability, T/C [8]?
Answer: 90.3%

Question: What about the viability, T/C [9] of the same compound?
Answer: 81%

Question: What about the viability, T/C [10] of the same compound?
Answer: 57.7%

Question: And the viability, T/C [11]?
Answer: 79%

Question: And the viability, T/C [12]?
Answer: 69.2%

Question: And the viability, T/C [13]?
Answer: 71.4%

Question: What about the viability, T/C [14] of the same compound?
Answer: 85.8%

Question: And the viability, T/C [15]?
Answer: 97.8%

Question: What about the viability, T/C [16] of the same compound?
Answer: 48.6%

Question: What about the viability, T/C [17] of the same compound?
Answer: 77.5%

Question: What about the viability, T/C [18] of the same compound?
Answer: 72.4%

Question: What about the viability, T/C [19] of the same compound?
Answer: 62.8%

Question: What about the viability, T/C [20] of the same compound?
Answer: 65.3%

Question: What about the viability, T/C [21] of the same compound?
Answer: 72.4%

Question: What about the viability, T/C [22] of the same compound?
Answer: 54.9%

Question: What about the viability, T/C [23] of the same compound?
Answer: 49.9%

Question: What about the viability, T/C [24] of the same compound?
Answer: 54.2%

Question: And the viability, T/C [25]?
Answer: 37.2%

Question: What about the viability, T/C [26] of the same compound?
Answer: 40.3%

Question: What about the viability, T/C [27] of the same compound?
Answer: 54.2%

Question: What about the viability, T/C [28] of the same compound?
Answer: 48.6%

Question: And the viability, T/C [29]?
Answer: 39.1%

Question: What about the viability, T/C [30] of the same compound?
Answer: 41.3%

Question: What about the viability, T/C [31] of the same compound?
Answer: 65.1%

Question: What about the viability, T/C [32] of the same compound?
Answer: 58.8%

Question: And the viability, T/C [33]?
Answer: 80.8%

Question: And the viability, T/C [34]?
Answer: 55.1%

Question: And the viability, T/C [35]?
Answer: 81%

Question: And the viability, T/C [36]?
Answer: 56.4%
